Test results from US10829489B2, “Bicyclic heterocyclic derivatives” (Merck Patent GmbH, priority 2015, dated 2020).

Tests used:
PDHK2 = PDHK2 (Homo sapiens (Human), UniProt Q15119); assay: Biochemical activity testing of PDHK2: PDC inactivation assay; conditions: human rec PDHK2, PDC inactivation assay; read-out: IC50 PDHK2 (enzyme assay)
Description: Biochemical Activity Testing of PDHK2: PDC Inactivation Assay
The biochemical activity assay for PDHK2 is based on the inactivation of PDC through phosphorylation by PDHK2. The assay is run in two steps: the enzymatic PDHK2 reaction in which isolated PDC is phosphorylated by PDHK2 with ATP as co-substrate and the PDC activity assay in which pyruvate and NAD are converted to acetyl-CoA and NADH. The PDC activity correlates to the increase in NADH and thereby is detectable directly via the increasing fluorescence signal (Exc 340 nm, Em 450 nm). Inhibition of PDHK2 results in a lower phosphorylation status and thereby a less decrease in activity of PDC and a stronger increase in NADH fluorescence signal.
The PDC inactivation assay is performed in Greiner 384-well microtiter plates and is used for high throughput screen. […] The first fluorescence measurement is performed on a Perkin Elmer Envision (Exc 340 nm, Em 450 nm). […] Afterwards a second fluorescence measurement is performed and the PDC activity is calculated by the difference between both measurements. […] The inhibitory values (IC50) were determined using either the program Symyx Assay Explorer® or Condosseo® from GeneData.

human PDHK2 (12-407) = human PDHK2 (12-407) (Homo sapiens (Human), UniProt Q15119); assay: Isothermal titration calorimetry (ITC) binding; conditions: 30° C.
Description: Isothermal Titration Calorimetry
ITC measurements were performed with a VP-ITC micro calorimeter (Microcal, LLC/GE Healthcare Bio-Sciences AB, Uppsala, Sweden). In general titrations were performed by titrating the protein (50 μM) to the test compound (5 μM) in 12 μl injections. All binding experiments were carried out at 30° C. In general the test compounds were diluted form DMSO stock solutions into the measurement buffer with a maximum final concentration of 1% DMSO. The measurement buffer was 20 mM HEPES, 135 mM KCl, 1 mM TCEP, 2 mM MgCl2, 15 mM NaH2PO4, pH 7.5. The human PDHK2 (12-407) was produced in E. coli as his-tagged protein and purified by affinity chromatography. The tag was removed by side specific proteolysis. Before titration the protein buffer was changed to the measurement buffer containing the same DMSO concentration as the test compound dilution. ITC data analysis was performed using Origin 7 calorimetry software from the same supplier. For most measurements a binding model of one binding site was assumed. According to the applied mathematical model it is possible to calculate the binding constant (KA), the observed binding enthalpy (ΔH^obs) as well as the stoichiometry (N) of the formed complex. Preceding analysis the raw data was corrected for the heats of dilution by extrapolating from the saturation value from the end of titration. In order to allow for direct comparison between the respective experimental series and protein preparations the protein concentration was corrected by referencing titrations to a well behaved standard inhibitor. The apparent stoichiometry values defined the fraction of binding competent protein and compensated for relative errors in protein concentration measurements. This corrected protein concentration was used to set up ITC experiment series with test compounds. Any deviations from ideal 1:1 stoichiometry observed here were attributed to errors in compound concentration. This nominal compound concentration was corrected as well to achieve 1:1 stoichiometry in the fit.

[1] = test system: PDH-E1alpha (pSer300) in HEK293T cells; assay: Cellular immunofluorescence assay for compound activity (Anti-PDH-E1alpha pSer300); assay type: cell-based; conditions: Homo sapiens, HEK-293T, 5 hours incubation, read-out: IC50 (cell data)
Description: Cellular Assay for Determination of Compound Activities
Compound activities were determined in a cellular immunofluorescence assay. Human HEK293T cells were seeded into black 384-well plates with clear bottom and grown overnight.
Next day, test compounds were added to the wells and the plates incubated for 5 hours. Following this, cells were fixed with formaldehyde, permeabilised and blocked. The primary antibody, Anti-PDH-E1alpha (pSer300), AP1064 (Merck Millipore) was added and incubated overnight in the plate wells. Next, cells were washed and the secondary antibody, Alexa Fluor 488, goat anti-rabbit ab (A-11008, Invitrogen) was added together with Hoechst 33258 (H3569, Invitrogen) and incubated for 1 hour in the plate wells. Finally, cells were washed and the plates were measured on the laser scanning cytometer acumen hci (TTpLabtech).
The raw data were normalized against a pharmacological inhibitor control and dose response curves were generated by plotting the percent effect values using the software package Genedata screener (Genedata).

IC50 (PDHK2) [nM] | SMILES | Kd (human PDHK2 (12-407)) [nM] | IC50 [1] [nM]
3000 to 50000 | COc1ccc(-n2ncc3c2[C@@H](C)CN(C(=O)[C@@](C)(O)C(F)(F)F)C3)cn1 [Compound A31, (R)-3,3,3-Trifluoro-2-hydroxy-1-[(S)-1-(6-methoxy-pyridin-3-yl)-7-methyl-1,4,6,7-tetrahydro-pyrazolo[4,3-c]pyridin-5-yl]-2-methyl-propan-1-one] |  | 
 | C[C@@](O)(C(=O)N1CCc2c(ncn2-c2ccc(F)cc2)C1)C(F)(F)F [Compound A44, (R)-3,3,3-Trifluoro-1-[1-(4-fluoro-phenyl)-1,4,6,7-tetrahydro-imidazo[4,5-c]pyridin-5-yl]-2-hydroxy-2-methyl-propan-1-one] | < 300 | 
 | C[C@@](O)(C(=O)N1CCc2c(ncn2-c2ccc(Cl)cc2)C1)C(F)(F)F [Compound A45, (R)-1-[1-(4-Chloro-phenyl)-1,4,6,7-tetrahydro-imidazo[4,5-c]pyridin-5-yl]-3,3,3-trifluoro-2-hydroxy-2-methyl-propan-1-one] | < 300 | 
< 300 | COc1ccc(-n2ncc3c2[C@H](C)CN(C(=O)[C@@](C)(O)C(F)(F)F)C3)cn1 [Compound A30, (R)-3,3,3-Trifluoro-2-hydroxy-1-[(R)-1-(6-methoxy-pyridin-3-yl)-7-methyl-1,4,6,7-tetrahydro-pyrazolo[4,3-c]pyridin-5-yl]-2-methyl-propan-1-one] | < 300 | < 300
